Assay results from patent US6372766B1, “Substituted 2-(2′-pyridyloxy)phenylacetamides, as fungicides and pesticides” (priority 1997, dated 2002).

These compounds were tested on Nephotettix cincticeps (assay: Action against Nephotettix cincticeps (green rice leafhopper), contact action). Settings: treated filter paper dishes, adult leafhoppers, mortality after 24 hours.
Format: in vivo
Source text: The active compounds were formulated
a. as a 0.1% solution in acetone or
b. as a 10% emulsion in a mixture of 70% by weight of cyclohexanone, 20% by weight of Nekanil® LN (Lutensol® AP6, wetting agent having emulsifying and dispersing action based on ethoxylated alkylphenols) and 10% by weight of Wettol® EM (nonionic emulsifier based on ethoxylated castor oil)
and diluted in the case of a. with acetone and in the case of b. with water to give the desired concentration.
After the experiments had ended, in each case the lowest concentration was determined at which the compounds still caused an 80 to 100% inhibition or mortality in comparison with untreated control experiments (critical or minimal concentration).
Filter paper dishes (Ø 9 cm) were treated with 1 ml of aqueous preparations of active compounds and subsequently populated with five adult leafhoppers. After 24 hours, the mortality was determined.
With `CNC(=O)/C(=N/OC)c1ccccc1COc1ncc(C(F)(F)F)cc1C` [I-2, α-anti-methoxyimino-N-methyl-2-(3-methyl-5-trifluoromethyl-2-pyridyloxy)methyl-phenylacetamide] the “critical concentration (lowest concentration still causing 80 to 100% inhibition or mortality)” value was 0.2 mg.

Each compound was assayed on Puccinia recondita (assay: Action against Puccinia recondita on wheat (wheat leaf rust)). Settings: 63 ppm; wheat "Frühgold"; sprayed the day after infection; 7 days; untreated plants 75%.
Format: in vivo
`CNC(=O)/C(=N/OC)c1ccccc1COc1ncc(C(F)(F)F)cc1F` [I-1, α-anti-methoxyimino-N-methyl-2-(3-fluoro-5-trifluoromethyl-2-pyridyloxy)methylphenyl-acetamide] was tested, and the “infection (extent of rust fungus development on leaves)” value (“infection” for short) was “no infection”. In the case of `CNC(=O)/C(=N/OC)c1ccccc1COc1ncc(C(F)(F)F)cc1C` [I-2, α-anti-methoxyimino-N-methyl-2-(3-methyl-5-trifluoromethyl-2-pyridyloxy)methyl-phenylacetamide], the “infection” value is reported as “no infection”. `CNC(=O)/C(=N/OC)c1ccccc1COc1nc(Cl)ccc1C(F)(F)F` [I-3] was tested, and the “infection” value was “no infection”. `CNC(=O)/C(=N/OC)c1ccccc1COc1nc(Cl)c(C(F)(F)F)cc1Cl` [I-6] was tested, and the “infection” value was “no infection”. In the case of `CNC(=O)/C(=N/OC)c1ccccc1COc1ncc(C(F)F)cc1Cl` [I-8], the “infection” value is reported as “no infection”.
